Data on one molecule can be found in patent US20180206499A1, “METHOD OF IMPROVING PLANT HEALTH AND ROOTING OF PLANTS” (Bayer CropScience LP, priority 2017, published 2018).

What all share (format): in vivo
The test system of assay [1] is Loblolly pine (P. taeda). As to the kind of experiment: Pinus taeda seed pot test, soil sprayed with indaziflam composition. To be noted: Esplanade 200SC soil spray; for root weight: untreated root approx. 0.06 grams; for shoot weight: untreated shoot approx. 0.19 grams. As for the experimental part: Loblolly pine (P. taeda) seeds were soaked in water for 24 hours and then placed in cold storage in a punctured bag for four weeks.
(§1) 20 seeds were placed in pots on soil surface and topdressed with one cup of sandy loam soil, about ⅛″ to ¼″ deep. The pots were irrigated and allowed to settle for 24 hours.
(§2) The soil was sprayed with a commercially available composition comprising indaziflam (commercial name Esplanade 200SC) using a single nozzle with a compressed CO2 backpack set at 32 psi for 25 gallons per acre. Overhead irrigation was set for twice daily.

Assay [2] has as its system Shortleaf pine (P. echinata). The experiment in a line: Pinus echinata seed pot test, soil sprayed with indaziflam composition. To be noted: soil spray; for root weight: untreated root approx. 0.05 grams; for shoot weight: untreated shoot approx. 0.10 grams. The method, then: Shortleaf pine (P. echinata) seeds were soaked in water for 24 hours and then placed in cold storage in a punctured bag for four weeks.
as §1
The soil was sprayed with a commercially available composition comprising indaziflam (commercial name […]) using a single nozzle with a compressed CO2 backpack set at 32 psi for 25 gallons per acre. Overhead irrigation was set for twice daily.

Assay [3] relates to Virginia pine (P. virginiana). As to the kind of experiment: Pinus virginiana seed pot test, soil sprayed with indaziflam composition. The following applies: Esplanade 200SC soil spray; for root weight: untreated root approx. 0.05 grams; for shoot weight: untreated shoot approx. 0.11 grams. As for the experimental part:
Virginia pine (P. virginiana) seeds were soaked in water for 24 hours and then placed in cold storage in a punctured bag for four weeks.
as §1, §2

In the case of `Cc1ccc2c(c1)[C@H](Nc1nc(N)nc(C(C)F)n1)[C@@H](C)C2` (mixture of isomers) [indaziflam, N2[(1R,2S)-2,3-dihydro-2,6-dimethyl-1H-inden-1-yl]-6-[(1RS)-1-fluoroethyl]-1,3,5-triazine-2,4-diamine], the root weight result in assay [1] (50 g indaziflam per hectare) is “approximately 0.15 grams”; in assay [1] (71.4 g indaziflam per hectare), “approximately 0.25 grams”; in assay [1] (100 g indaziflam per hectare) it was “approximately 0.14 grams”; in assay [2] (50 g indaziflam per hectare), “approximately 0.13 grams”; in assay [2] (71.4 g indaziflam per hectare) it was “approximately 0.27 grams”; in assay [2] (100 g indaziflam per hectare), “approximately 0.22 grams”. The root weight result in assay [3] (50 g indaziflam per hectare) was “approximately 0.14 grams”; in assay [3] (71.4 g indaziflam per hectare) it was “approximately 0.27 grams”; in assay [3] (100 g indaziflam per hectare) it was “approximately 0.22 grams”. Also, the shoot weight result is “approximately 0.30 grams” in assay [1] (50 g indaziflam per hectare); “approximately 0.50 grams” in assay [1] (71.4 g indaziflam per hectare); “approximately 0.22 grams” in assay [1] (100 g indaziflam per hectare); “approximately 0.34 grams” in assay [2] (50 g indaziflam per hectare); “approximately 0.40 grams” in assay [2] (71.4 g indaziflam per hectare); “approximately 0.24 grams” in assay [2] (100 g indaziflam per hectare). For the same molecule, the shoot weight entry in assay [3] (50 g indaziflam per hectare) is “approximately 0.23 grams”; in assay [3] (71.4 g indaziflam per hectare) it was “approximately 0.41 grams”.
